Entries after “also recorded” stand apart in the source; their conditions may differ.

One test concerns panel of up to 42 human chemokines. The test can be described thus: Phage-display next generation sequencing screen of overlapping hexadecapeptide libraries, chemokines displayed on streptavidin beads. The class given is binding. Conditions: log2E greater than 5, chemokines named by first part of UniProt Entry Name. In short, it runs like this:
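Phage-display libraries of 55662 overlapping hexadecapeptides from tick and viral chemokine-binding proteins, human chemokines and chemokine receptors screened against up to 42 human chemokines, with hits found by next-generation sequencing. Peptides mapped to parent-protein position with log2 fold enrichment; regions of interest where cumulative residue log2 E exceeds the 95% upper CI of the protein median.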
For CR26041 (VTSVITWLVAVFASVP), the “Chemokines Bound” value is recorded as “CCL2, X3CL1,; also recorded: CXL11, IL8”.

On to CR26093 (VVCILVWLLAFCVSLP), for which the “Chemokines Bound” value is listed as “CCL20, X3CL1,; also recorded: CXL10, IL8”.

For the substance CR26155 (VVLIFLLSWLPYNLVL), the “Chemokines Bound” value is “CCL15, CCL28,; also recorded: CXL10, CXL13”.

For the substance CR26231 (VVTSVITWLVAVFASV), the “Chemokines Bound” value was “CCL11, CCL17, and CCL18, CCL2, and CCL20, CCL25, and CCL8, CXL10, and CXL11, CXL14, and IL8”.

As for CR26232 (VVTSVITWVVAVFASL), the “Chemokines Bound” value is “CCL17, CCL18,; also recorded: CCL28, CCL8,; also recorded: X3CL1, CXL10,; also recorded: SDF1, CXL14”.

CR26306 (VWLMAIVGTFLNVLVI): the “Chemokines Bound” value was “CCL22, CXL11,; also recorded: CXL13”.

Turning to CR26308 (VWLMCIVGTFLNVLVI), the “Chemokines Bound” value is “CCL18, CCL20, and CCL22, CCL28, and CXL10, CXL11, and SDF1”.

Consider CR26309 (VWLMSIVGTFLNMLVI), for which the “Chemokines Bound” value is “CCL18, CXL10,; also recorded: CXL11, CXL13,; also recorded: CXL14”.

Consider CR26310 (VWLMSIVGTFLNVLVI), for which the “Chemokines Bound” value is reported as “CCL17, CCL18,; also recorded: CCL2, CXL10,; also recorded: CXL11, SDF1,; also recorded: CXL14, IL8”.

With “CR26327: chemokine binding peptide of Table 5A used in FIG. 5 combinations (VWVASILSSILDTIFH)”, the “Chemokines Bound” value is “CCL2, CXL11, and IL8”.

For CR26399 (VYTVLLSWKVLLTLVW), the “Chemokines Bound” value was “CCL1, CCL17, and CCL18, CCL19, and CCL20, CCL22, and CCL25, CCL28, and X3CL1, CXL10, and CXL11, SDF1, and CXL13, CXL14, and IL8”.

CR26500 (WFLPIMYSIICFVGLL): the “Chemokines Bound” value is given as “CCL28, SDF1,; also recorded: CXL14”.

Consider CR26513 (WGAAPVIMMTWFYAFF), for which the “Chemokines Bound” value was “CCL11, CCL17, and CCL18, CCL19, and CCL20, CCL22, and CCL25, CCL28, and X3CL1, CXL10, and CXL11, CXL13, and IL8”.

With CR26521 (WGLALLFALPDFIFLS), the “Chemokines Bound” value is “CCL15, CXL13, and IL8”.

For CR26536 (WGWVLGDFLCKLLNMI), the “Chemokines Bound” value is recorded as “CCL1, CCL11,; also recorded: CCL17, CCL18,; also recorded: CCL20, CCL22,; also recorded: CCL28, CCL5,; also recorded: X3CL1, CXL10,; also recorded: SDF1, IL8”.

In the case of CR26547 (WHWVFGSFLAKMVSTL), the “Chemokines Bound” value is “CCL1, X3CL1,; also recorded: CXL14”.

Take CR26592 (WKLLAEIYEYLFFFSF): the “Chemokines Bound” value is recorded as “CCL19, CCL20,; also recorded: CCL22, CXL14”.

Turning to CR26630 (WLMCIVGTFLNVLVIT), the “Chemokines Bound” value is “CCL1, CCL17,; also recorded: CCL18, CCL19,; also recorded: CCL20, CCL22,; also recorded: CCL28, CCL8,; also recorded: X3CL1, CXL10,; also recorded: CXL11, SDF1,; also recorded: CXL14, IL8”.

Take CR26633 (WLMSIVGTFLNMLVIT): the “Chemokines Bound” value is recorded as “CCL11, CCL17,; also recorded: CCL18, CCL19,; also recorded: CCL20, CCL22,; also recorded: CCL25, CCL28,; also recorded: X3CL1, CXL10”.

CR26655 (WMNILWAWFIFWWPHG): the “Chemokines Bound” value is given as “CCL17, CCL18,; also recorded: CCL19, CCL20,; also recorded: CCL28, CXL10,; also recorded: SDF1, IL8”.

Regarding CR26667 (WNNFHTIMRNILGLVL), the “Chemokines Bound” value is listed as “CCL17, CCL18,; also recorded: CXL14”.

Take CR26721 (WSLVFMAIERINYFAY): the “Chemokines Bound” value is “CCL17, CCL18,; also recorded: CXL10”.

Take CR26762 (WVASILSSILDTIFHK): the “Chemokines Bound” value is “CCL17, CCL18,; also recorded: X3CL1, CXL10,; also recorded: CXL11, IL8”.

As to CR26799 (WVFIFSSIQLATVVFL), the “Chemokines Bound” value was “CCL18, CCL19, and CCL20, CCL22, and CCL28, X3CL1, and CXL10, CXL11, and IL8”.

For CR26801 (WVFIFSSIQLCTVVFL), the “Chemokines Bound” value is listed as “CCL1, CCL17,; also recorded: CCL18, CCL19,; also recorded: CCL20, CCL28,; also recorded: X3CL1, SDF1”.

Take CR26817 (WVLGDFLCKLLNMIFS): the “Chemokines Bound” value was “CCL1, CCL17, and CCL18, CCL20, and CCL28, X3CL1, and CXL10, CXL11, and CXL13, CXL14, and IL8”.

For the substance CR26831 (WVLVIGSLVARWLLGI), the “Chemokines Bound” value was “CCL17, CCL2,; also recorded: X3CL1, CXL10”.

As to CR26850 (WVVVFQFQHIMVGLIL), the “Chemokines Bound” value was “CCL1, CCL19, and CCL20, CCL28, and SDF1”.

CR27049 (YDLFIGIKIVYAFLWG): the “Chemokines Bound” value was “CCL1, CCL18, and CCL22, CCL25, and IL8”.

As to CR27050 (YDLFIGIKIVYCFLWG), the “Chemokines Bound” value is “CCL1, CCL17,; also recorded: CCL19, CCL20,; also recorded: CCL22, X3CL1,; also recorded: CXL10, CXL11,; also recorded: SDF1, CXL13,; also recorded: CXL14, IL8”.

As to CR27051 (YDLFIGIKIVYSFLWG), the “Chemokines Bound” value is listed as “CCL18, CCL2,; also recorded: CCL20, CCL25,; also recorded: CCL28, CXL10,; also recorded: CXL11, CXL14”.

For the substance CR27428 (YLKAFLAAVLGWHLAP), the “Chemokines Bound” value is reported as “CCL17, CCL18,; also recorded: CCL2, CCL20,; also recorded: X3CL1, CXL10,; also recorded: CXL11, SDF1,; also recorded: CXL14”.

Regarding CR27433 (YLLDFILALVGNTLAL), the “Chemokines Bound” value is listed as “CCL18, CCL19,; also recorded: CCL20, CCL25,; also recorded: CCL28, CXL10,; also recorded: CXL11”.

Turning to CR27448 (YLLNLAISDLLFVFSL), the “Chemokines Bound” value is “CCL1, CCL2,; also recorded: CXL11, IL8”.

For the substance CR27514 (YLYVYLDIFSVVSVSL), the “Chemokines Bound” value was “CCL1, CCL19, and SDF1”.

For the substance CR27677 (YSAFLSGMTSLLLVLL), the “Chemokines Bound” value is recorded as “CCL17, CCL18,; also recorded: CCL20, CCL25,; also recorded: CXL10, CXL14”.

Take CR28001 (YVSFISTTILFLIFSV): the “Chemokines Bound” value is reported as “CCL1, CCL15,; also recorded: CCL17, CCL19,; also recorded: CCL20, CCL22,; also recorded: CCL25, CCL28,; also recorded: X3CL1, CXL10,; also recorded: CXL11, CXL14”.

Take CR28005 (YVSTLDFAIVFILMII): the “Chemokines Bound” value is on record as “CCL17, CCL18,; also recorded: CCL19, CCL20,; also recorded: CCL22, CCL28,; also recorded: X3CL1, CXL10,; also recorded: CXL11, SDF1,; also recorded: CXL13”.

The same test, now with this note: log2E greater than 5, chemokines named by first part of UniProt Entry Name, peptides binding complement C5a (control) excluded.
Turning to EB630 (DKKVGLCLSTEYTDFS), the “Chemokines Bound” value is on record as “CXL10, SDF1,; also recorded: CXL14”.

As for EB936 (EKSDEYELFTVEYCGT), the “Chemokines Bound” value is “CXL10, CXL11,; also recorded: SDF1, CXL13”.

As to EB963 (ENDKKVGLCLSTEYTD), the “Chemokines Bound” value is “CXL10, CXL11, and SDF1”.

Turning to EB1522 (GNSTEGRCIELIGDFD), the “Chemokines Bound” value is “CXL11, SDF1,; also recorded: CXL14”.

On to EB1728 (HEDGKKVGLCLSTEYT), for which the “Chemokines Bound” value is listed as “CXL10, SDF1,; also recorded: CXL14”.

For the substance EB2047 (KSDEYELFTVEYCGTN), the “Chemokines Bound” value is given as “CXL10, CXL11,; also recorded: SDF1, CXL14”.

On to EB2053 (KSDVYELFTVEYCGTN), for which the “Chemokines Bound” value is reported as “CXL10, CXL11,; also recorded: CXL13”.

For the substance EB2359 (NDKKVGLCLSTEYTDF), the “Chemokines Bound” value is on record as “CXL10, CXL11,; also recorded: SDF1, CXL14”.

Take EB2905 (SACSGDCVCVHRDNEP): the “Chemokines Bound” value was “CXL10, CXL11, and SDF1”.

On to EB3085 (SGLCLSTTYIDFSEYG), for which the “Chemokines Bound” value is recorded as “CXL10, CXL11,; also recorded: SDF1, CXL14”.

For the substance EB3094 (SGNCTCYHEDGKKVGL), the “Chemokines Bound” value was “CXL10, CXL11, and SDF1”.

With EB3974 (VGLCLSTEYTDFSEYP), the “Chemokines Bound” value is recorded as “CXL10, SDF1,; also recorded: CXL14”.

EB3975 (VGLCLSTEYTDFTKFP): the “Chemokines Bound” value is listed as “CXL10, CXL11,; also recorded: SDF1, CXL14”.

Regarding EDDYTAYAPLTCYFTN [HD842], the “Chemokines Bound” value was “CCL1, CCL17, and CCL4, CCL5, and CCL8”.

In the case of EEEDDYTAYAPLTCYF [HD7], the “Chemokines Bound” value was “CCL1, CCL11, and CCL15, CCL17, and CCL18, CCL20, and CCL22, CCL3, and CCL4, CCL5, and CCL8”.

As for LEEEDDYTAYAPLTCY [HD2134], the “Chemokines Bound” value was “CCL1, CCL11, and CCL15, CCL17, and CCL18, CCL22, and CCL4, CCL5, and CCL8”.

Turning to LTDGTACYVVERKVWD [HD2313], the “Chemokines Bound” value was “CCL19, CCL20,; also recorded: CCL28”.

For TDGTACYVVERKVWDR [HD3838], the “Chemokines Bound” value was “CCL19, CCL2,; also recorded: CCL20, CCL28”.

For VP485 (AMMLSLLIAGMSLMLG), the “Chemokines Bound” value was “CCL11, CCL25, and CCL28, CCL5, and CXL11, CXL14, and IL8”.

With VP988 (CIILLVYVYATFATKG), the “Chemokines Bound” value is recorded as “CCL1, CCL8,; also recorded: X3CL1, CXL10,; also recorded: CXL11”.

With VP1485 (DLAGLDSLTSPVYVMA), the “Chemokines Bound” value was “CCL20, X3CL1, and SDF1”.

As to VP3426 (GSMMLSLLIAGMSLML), the “Chemokines Bound” value is “CCL2, CCL5, and X3CL1, CXL10, and IL8”.

VP4048 (IILLVYVYATFATKGI): the “Chemokines Bound” value is “CCL1, CCL5,; also recorded: CCL8, X3CL1,; also recorded: CXL10, CXL11,; also recorded: CXL13, IL8”.

With VP4071 (IKAESKGSELILLDPP), the “Chemokines Bound” value is “CCL17, CCL20,; also recorded: CCL22”.

In the case of VP5438 (LIKAAILLLAGGLAES), the “Chemokines Bound” value was “CCL17, CCL20,; also recorded: CCL25, CCL28,; also recorded: CCL5, CXL10”.

In the case of VP6154 (MKSVLYLYILFLSCII), the “Chemokines Bound” value is “CCL1, X3CL1, and CXL10, CXL11, and IL8”.

As for VP6289 (MVAVALYAYGLAFRLM), the “Chemokines Bound” value is “CCL1, CCL11,; also recorded: CCL15, CCL17,; also recorded: CCL19, CCL2,; also recorded: CCL20, CCL22,; also recorded: CCL25, CCL28,; also recorded: CCL5, CXL10,; also recorded: SDF1, IL8”.

As to VP6307 (MYSLVFVILMCIPFSF), the “Chemokines Bound” value is on record as “X3CL1, CXL11,; also recorded: CXL13, IL8”.

Take VP7819 (RLEELYLTVASMFERL): the “Chemokines Bound” value is recorded as “CCL1, CCL11,; also recorded: CCL17, CCL19,; also recorded: CCL2, CCL22,; also recorded: CCL28, CXL10”.

Turning to VP10866 (VNASIAWFFDFGACRM), the “Chemokines Bound” value is listed as “X3CL1, CXL10,; also recorded: CXL11”.

Consider VP11559 (YLYILFLSCIIINGRD), for which the “Chemokines Bound” value is recorded as “CXL10, CXL11,; also recorded: CXL13, IL8”.

Consider VP11669 (YSLVFVILMCIPFSFQ), for which the “Chemokines Bound” value is recorded as “X3CL1, CXL10,; also recorded: CXL11, IL8”.

These data come from patent publication US20260234188A1, “CHEMOKINE-BINDING PEPTIDES” (Oxford University Innovation Limited, priority 2022, published 2026).
